± gives the standard deviation. Values belong to the compound of their own block, whether it stands above or below them.
Key:
[1] = chemical recovery by SPE of plasma after PDMS sampling; higher = better extraction; conditions: pooled human plasma, extraction method: HLB SPE of plasma after PES
[2] = chemical recovery from spiked human plasma; higher = better extraction; conditions: pooled human plasma
[3] = extraction method: SPE only (HLB 96-well), PES comparison experiment
[4] = extraction method: solvent precipitation (ACN + hexane)
[5] = extraction method: PES+SPE (3 d PDMS equilibration then HLB SPE)
[6] = extraction method: SPE only (HLB 96-well)
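Wherever chemical recovery by SPE of plasma after PDMS sampling is given: over 400 spiked chemicals quantified by LC-HRMS or GC-HRMS via internal standard calibration, recovery relative to spike mix added to unspiked plasma extract to correct matrix effects.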

SMILES: CCc1cccc(C)c1N(C(=O)CS(=O)(=O)O)[C@@H](C)C(=O)O
chemical recovery by SPE of plasma ([1]; equilibration time (d): 3): 28.5 ± 9.3% | chemical recovery by SPE of plasma ([1]; equilibration time (d): 6): 33.9 ± 4.1%

SMILES: CCc1cccc(C)c1NC(=O)CS(=O)(=O)O
chemical recovery [2, 3]: 42.9 ± 4.2% | chemical recovery by SPE of plasma ([1]; equilibration time (d): 1): 37.4 ± 8.2% | chemical recovery by SPE of plasma ([1]; equilibration time (d): 3): 40.4 ± 2% | chemical recovery by SPE of plasma ([1]; equilibration time (d): 6): 40.3 ± 9.3%

SMILES: Oc1ccc(Cl)cc1Cl [2,4-Dichlorophenol]
chemical recovery [2, 5]: 43.4 ± 3.3% | chemical recovery [2, 6]: 40.3 ± 3.3% | chemical recovery [2, 3]: 54.2 ± 5.9% | chemical recovery by SPE of plasma ([1]; equilibration time (d): 1): 49.3 ± 11% | chemical recovery by SPE of plasma ([1]; equilibration time (d): 3): 56.9 ± 4.3% | chemical recovery by SPE of plasma ([1]; equilibration time (d): 6): 50.9 ± 3.1%

SMILES: O=[N+]([O-])c1ccc(O)c([N+](=O)[O-])c1 [2,4-Dinitrophenol]
chemical recovery [2, 5]: 52.7 ± 7.5% | chemical recovery [2, 6]: 48.7 ± 6.6% | chemical recovery [2, 3]: 59.8 ± 4.8% | chemical recovery [2, 4]: 79.6 ± 6.8% | chemical recovery by SPE of plasma ([1]; equilibration time (d): 1): 49.4 ± 8.9% | chemical recovery by SPE of plasma ([1]; equilibration time (d): 3): 52 ± 3% | chemical recovery by SPE of plasma ([1]; equilibration time (d): 6): 50.9 ± 4.5%

SMILES: Oc1ccccc1-c1ccccc1 [2-Phenylphenol]
chemical recovery [2, 6]: 19.9 ± 4.2% | chemical recovery by SPE of plasma ([1]; equilibration time (d): 1): 4.5 ± 4% | chemical recovery by SPE of plasma ([1]; equilibration time (d): 3): 3.47 ± 0.42% | chemical recovery by SPE of plasma ([1]; equilibration time (d): 6): 3.11 ± 1.4%

SMILES: Nc1ccc(Sc2ccc(N)cc2)cc1 [4,4'-Thiodianiline]
chemical recovery [2, 5]: 1.15 ± 0.088% | chemical recovery [2, 6]: 8.97 ± 1.9% | chemical recovery [2, 3]: 16.5 ± 2% | chemical recovery [2, 4]: 42.1 ± 9.6% | chemical recovery by SPE of plasma ([1]; equilibration time (d): 1): 11.7 ± 2.8% | chemical recovery by SPE of plasma ([1]; equilibration time (d): 3): 10.6 ± 2.5% | chemical recovery by SPE of plasma ([1]; equilibration time (d): 6): 7.77 ± 1.4%

SMILES: Oc1ccc(Cl)cc1 [4-Chlorophenol]
chemical recovery [2, 5]: 33.9 ± 11% | chemical recovery [2, 6]: 35.2 ± 7.2% | chemical recovery [2, 3]: 60.1 ± 5.1% | chemical recovery [2, 4]: 98 ± 9.7% | chemical recovery by SPE of plasma ([1]; equilibration time (d): 1): 60 ± 12% | chemical recovery by SPE of plasma ([1]; equilibration time (d): 3): 66.4 ± 6.9% | chemical recovery by SPE of plasma ([1]; equilibration time (d): 6): 59.4 ± 4.3%

SMILES: O=c1cc(O)c2ccccc2o1 [4-Hydroxycoumarin]
chemical recovery [2, 3]: 13.2 ± 3.1% | chemical recovery by SPE of plasma ([1]; equilibration time (d): 1): 69.3 ± 16% | chemical recovery by SPE of plasma ([1]; equilibration time (d): 3): 64.3 ± 4.7% | chemical recovery by SPE of plasma ([1]; equilibration time (d): 6): 78 ± 15%

SMILES: C=Cc1c2ccccc2cc2ccccc12 [9-Vinylanthracene]
chemical recovery [2, 5]: 42.05 ± 0.27% | chemical recovery [2, 6]: 2.31 ± 0.48% | chemical recovery by SPE of plasma ([1]; equilibration time (d): 1): 3.04 ± 5.3% | chemical recovery by SPE of plasma ([1]; equilibration time (d): 3): 3.05 ± 5.3% | chemical recovery by SPE of plasma ([1]; equilibration time (d): 6): 2.42 ± 4.2%

Further lines, results first:

chemical recovery [2, 3]: 35.7 ± 5.6% | chemical recovery [2, 4]: 78.6 ± 6.2% | chemical recovery by SPE of plasma ([1]; equilibration time (d): 3): 38.9 ± 4.6% | chemical recovery by SPE of plasma ([1]; equilibration time (d): 6): 33.6 ± 9.2%
SMILES: CO/N=C(/C(=O)O)c1ccccc1CO/N=C(\C)c1cccc(C(F)(F)F)c1

chemical recovery [2, 5]: 25.4 ± 4.9% | chemical recovery [2, 6]: 30.6 ± 4.5% | chemical recovery [2, 3]: 52.8 ± 4.5% | chemical recovery [2, 4]: 65.4 ± 4.9% | chemical recovery by SPE of plasma ([1]; equilibration time (d): 3): 49.6 ± 1.4% | chemical recovery by SPE of plasma ([1]; equilibration time (d): 6): 45.4 ± 6.4%
SMILES: NC(=O)c1c(Cl)c(Cl)cc(C(=O)O)c1Cl

chemical recovery [2, 6]: 3.53 ± 1.7% | chemical recovery [2, 3]: 3.93 ± 4.5% | chemical recovery by SPE of plasma ([1]; equilibration time (d): 1): 2.28 ± 2% | chemical recovery by SPE of plasma ([1]; equilibration time (d): 3): 3.98 ± 3.6% | chemical recovery by SPE of plasma ([1]; equilibration time (d): 6): 4.03 ± 4.2%
SMILES: CCCCn1cc[n+](C)c1 [1-Butyl-3-methyl-imidazolium]

chemical recovery [2, 6]: 61.2 ± 20% | chemical recovery [2, 3]: 46 ± 4.3% | chemical recovery [2, 4]: 88.4 ± 4.2% | chemical recovery by SPE of plasma ([1]; equilibration time (d): 1): 31.8 ± 4.8% | chemical recovery by SPE of plasma ([1]; equilibration time (d): 3): 42.3 ± 0.92% | chemical recovery by SPE of plasma ([1]; equilibration time (d): 6): 39.9 ± 5.4%
SMILES: O=S(=O)(O)c1nc2ccccc2s1 [2-Benzothiazolesulfonic acid]

chemical recovery [2, 6]: 61.3 ± 20% | chemical recovery [2, 3]: 44.7 ± 5.6% | chemical recovery [2, 4]: 74.1 ± 3.9% | chemical recovery by SPE of plasma ([1]; equilibration time (d): 3): 47.9 ± 0.58% | chemical recovery by SPE of plasma ([1]; equilibration time (d): 6): 45 ± 6.4%
SMILES: O=S(=O)(O)c1cccc2ccc(O)cc12 [2-Naphthol-8-sulfonic acid]

chemical recovery [2, 5]: 11.4 ± 2.5% | chemical recovery [2, 6]: 46.8 ± 8.9% | chemical recovery [2, 3]: 42.6 ± 12% | chemical recovery [2, 4]: 62.1 ± 1.3% | chemical recovery by SPE of plasma ([1]; equilibration time (d): 1): 13.5 ± 3.3% | chemical recovery by SPE of plasma ([1]; equilibration time (d): 3): 7.29 ± 0.7% | chemical recovery by SPE of plasma ([1]; equilibration time (d): 6): 3.71 ± 1.9%
SMILES: CCC(=C(c1ccc(O)cc1)c1ccc(OCCN(C)C)cc1)c1ccccc1 [4-Hydroxytamoxifen]

chemical recovery [2, 5]: 48.9 ± 3% | chemical recovery [2, 6]: 41.5 ± 6.3% | chemical recovery [2, 3]: 64.5 ± 4.6% | chemical recovery [2, 4]: 65.1 ± 6.7% | chemical recovery by SPE of plasma ([1]; equilibration time (d): 1): 57.4 ± 7.2% | chemical recovery by SPE of plasma ([1]; equilibration time (d): 3): 59.3 ± 2.9% | chemical recovery by SPE of plasma ([1]; equilibration time (d): 6): 55.1 ± 4.6%
SMILES: O=[N+]([O-])c1ccc(O)cc1 [4-Nitrophenol]

chemical recovery by SPE of plasma ([1]; equilibration time (d): 1): 11 ± 0.85% | chemical recovery by SPE of plasma ([1]; equilibration time (d): 3): 17 ± 1.5% | chemical recovery by SPE of plasma ([1]; equilibration time (d): 6): 11.3 ± 1.4%
SMILES: CC(C)(C)c1ccc(S(N)(=O)=O)cc1 [4-tert-Butylbenzenesulfonamide]

chemical recovery [2, 3]: 53.6 ± 7.5% | chemical recovery by SPE of plasma ([1]; equilibration time (d): 1): 59.2 ± 5.8% | chemical recovery by SPE of plasma ([1]; equilibration time (d): 3): 57.1 ± 4.7% | chemical recovery by SPE of plasma ([1]; equilibration time (d): 6): 51.1 ± 6.5%
SMILES: C[C@H]1C[C@@H]2[C@H]([C@@H](O)C[C@@]3(C)[C@H]2CC[C@]3(O)C(=O)CO)[C@@]2(C)C=CC(=O)C=C12 [6alpha Methylprednisolone]

From the supplement of paper PMC10702517
